From a melting point compilation (Tetko et al.)

Row | Structure (SMILES) | melting point [°C]
1 | CCOC(=O)c1cnc(C)c(C(=O)O)c1 | 199 to 201
2 | N#CCc1cccc(C(N)=O)c1 | 157 to 159
3 | CN(C)c1cc(C(F)(F)F)nc(Cl)n1 | 106 to 108
4 | COc1ccccc1C(C#N)NC(=O)OC(C)(C)C (stereo not drawn) | 79 to 81
5 | NS(=O)(=O)CCC(=O)O | 111 to 113
6 | CNC(=O)c1ccccc1O | 83 to 85
7 | O=C(O)COc1cccc(N2CCCC2=O)c1 | 169 to 171
8 | CN1C(=O)CC(C(=O)O)C1c1ccc(C(F)(F)F)cc1 (stereo not drawn) | 145 to 147
9 | CC(C)(C)OC(=O)NCCNS(=O)(=O)c1cccc(N)c1 | 148 to 150
10 | COC(=O)c1cc(CBr)on1 | 59 to 61
11 | CN(C)c1cccc(-c2nnc(N)o2)c1 | 175 to 177
12 | COc1ccc(Oc2c(F)cc(CCl)cc2F)cc1 | 62 to 64
13 | O=C(O)c1c[nH]c2ncccc12 | 213 to 215
14 | O=C(c1cc(Cl)ccc1[N+](=O)[O-])N1CCCC1 | 157 to 159
15 | O=C(O)c1cc(F)cc([N+](=O)[O-])c1Br | 177 to 179
16 | COc1cccc(C(C)=CC(=O)O)c1 | 102 to 104
17 | O=C(O)CSCc1cc(-c2cccs2)on1 | 113 to 115
18 | CC(=O)Nc1cccc2c1CCNC2 | 141 to 143
19 | Nc1ccccc1S(=O)(=O)Nc1ccccc1 | 118 to 120
20 | N#CCNc1cccc(Cl)c1 | 51 to 53
21 | O=S1(=O)CCNC2CCCCC21 (stereo not drawn) | 75 to 77
22 | Cc1ccc2c(c1)C(=NO)C(=O)N2 | 239 to 241
23 | CCOC(=O)c1c(C)c2c(=O)[nH]nc(S)n2c1C | 218 to 220
24 | O=[N+]([O-])c1cc(Cl)c(S(=O)(=O)Cl)c(Cl)c1 | 92 to 94

Row | Structure (SMILES) | melting point [°C]
25 | Cc1cc(C#N)ccc1-n1cncn1 | 139 to 141
26 | CCNc1nc(C(=O)O)cs1 | 215 to 217
27 | Cn1cccc1C(=O)CCl | 30 to 40
28 | COc1cc(C)c(C(=O)O)cc1OC | 146 to 148
29 | CN(C)C(=O)Sc1cnc2nccn2c1 | 129 to 131
30 | CC(C(=O)NC1CCC(C(=O)O)CC1)n1cccn1 (stereo not drawn) | 154 to 156
31 | CC(C)C1CNc2ccccc2N1 (stereo not drawn) | 73 to 75
32 | O=C(O)Cn1nc(-c2ccc(F)cc2)oc1=O | 110 to 112
33 | Nc1ccccc1-c1nnnn1C1CC1 | 97 to 99
34 | FC(F)(F)c1ccc2c(c1)NCCO2 | 94 to 96
35 | Cc1cc2ncn(C(C)c3ccccc3)c2cc1C (stereo not drawn) | 169 to 171
36 | COC(=O)c1noc(C(=O)OC)c1O | 157 to 161
37 | Cc1nc2c(cnn2C(C)C)c(=O)[nH]1 | 174 to 176
38 | Cc1ccc(-n2cc(S(=O)(=O)Cl)cn2)cc1S(=O)(=O)Cl | 114 to 116
39 | Nc1cccc(S(=O)(=O)N2CCCCCC2)c1 | 73 to 77
40 | N#Cc1c(F)c(N)c(F)c(F)c1C#N | 159 to 161
41 | CC(C)(C)OC(=O)NN1CC(C(=O)O)CC1=O (stereo not drawn) | 169 to 171
42 | NC(=S)CCN1C(=O)c2ccccc2C1=O | 186 to 188
43 | CC1(O)CN(C(=O)OC(C)(C)C)C1 | 89 to 91
44 | CC(C)(C)OC(=O)NC(C#N)c1ccc(F)cc1 (stereo not drawn) | 85 to 87
45 | Nc1ccnn1-c1ccc(C(F)(F)F)cn1 | 89 to 91
46 | CC(O)Cc1ccccc1S(C)(=O)=O (stereo not drawn) | 55 to 57
47 | CC1CCc2c(sc3ncnc(Cl)c23)C1 (stereo not drawn) | 119 to 121
48 | CCOc1cc(/C=C/C(=O)O)ccc1OCc1cccnc1 | 201 to 203

Row | Structure (SMILES) | melting point [°C]
49 | O=C(O)CCn1ncc2ccc([N+](=O)[O-])cc21 | 151 to 153
50 | CC1(C)CN(C(=O)OC(C)(C)C)c2ccccc2N1 | 92 to 94
51 | CCOc1cc(Br)c(CC(=O)O)cc1OCC | 128 to 129
52 | Cc1cc(F)c(C(=O)O)cc1F | 167 to 169
53 | CCOC(=O)c1cnc2nccn2c1 | 168 to 170
54 | COCc1cc(C(=O)O)no1 | 85 to 87
55 | CCOc1ccc(NC(=O)c2ccc(NC(=O)CCl)cc2)cc1 | 253 to 255
56 | CC(C)CN1C(=O)C(=O)c2ccccc21 | 82 to 84
57 | O=C1Nc2cc(F)c(Br)cc2C1=O | 266 to 268
58 | N#CCc1nc(C23CC4CC(CC(C4)C2)C3)cs1 | 57 to 59
59 | CCN(CC)CCn1c(N)nc2ccccc21 | 129 to 131
60 | Cc1cc(O)cc(O)n1 | 324 to 327
61 | C#Cc1ccc(C(=O)O)cn1 | 129 to 131
62 | O=C1c2ccccc2C(=O)N1CCc1ncc[nH]1 | 243 to 245
63 | O=C(O)c1cc(/C=C/c2ccc(OC(F)(F)F)cc2)nc2ccc(Br)cc12 | 311 to 313
64 | CN(C(=O)c1ccc(N)cc1Cl)C1CCCCC1 | 172 to 174
65 | Cn1ccc(C(=O)O)c1 | 144 to 146
66 | COC(=O)C1CNC(=O)C1 (stereo not drawn) | 58 to 60
67 | CN(C)c1ccc(NC(=O)NN)cc1 | 140 to 142
68 | Cc1ccc(NC(=O)C2CC2)cc1N | 163 to 165
69 | O=[N+]([O-])c1ccc(Cl)nc1O | 139 to 141
70 | COc1ccc2cc(C(=O)O)[nH]c2c1 | 190 to 192
71 | COc1ccc(S(=O)(=O)N(C)c2ccc(O)cc2)cc1 | 88 to 90
72 | CC(C)(O)c1nc2ccccc2s1 | 89 to 91

Row | Structure (SMILES) | melting point [°C]
73 | COc1ccc2c(O)c(C(=O)O)cnc2c1 | 269 to 271
74 | CCS(=O)(=O)c1cccc(S(=O)(=O)Cl)c1 | 92 to 94
75 | CN(C)S(=O)(=O)c1ccc(S(=O)(=O)Cl)c([N+](=O)[O-])c1 | 153 to 155
76 | CCOc1cc(N2CCC(O)CC2)ccc1[N+](=O)[O-] | 109 to 111
77 | Cc1nc(-c2ccc(I)cc2)n[nH]1 | 197 to 199
78 | N#CCCN(C(=O)CCC(=O)O)c1ccccc1 | 98 to 100
79 | Cc1nnc(-c2cccc([N+](=O)[O-])c2)o1 | 158 to 160
80 | Cc1ccc(C(N)c2cccc(S(C)(=O)=O)c2)cc1 (stereo not drawn) | 73 to 75
81 | O=C(O)C1CCN(S(=O)(=O)c2cc([N+](=O)[O-])ccc2Cl)CC1 | 42 to 44
82 | Cc1cnn(-c2ccc(C(=O)O)cc2)c1 | 240 to 242
83 | C=CCC(NC(=O)OCc1ccccc1)c1ccccc1 (stereo not drawn) | 65 to 67
84 | COc1ccc(C2C(C(=O)O)CCC(=O)N2c2ccc(OC)cc2)cc1 (stereo not drawn) | 178 to 180
85 | BrCc1cnn(-c2ccccc2)n1 | 44 to 46
86 | COC(=O)c1[nH]n(-c2ccc(C(=O)O)cc2)c(=O)c1CCO | 233 to 235
87 | NC1c2ccccc2-c2ccccc21 | 43 to 45
88 | COc1ccc2[nH]c3c(c2c1)CC(C)CC3 (stereo not drawn) | 59 to 61
89 | CC(=O)NCc1cccc(Br)c1 | 75 to 77
90 | CN(C(=O)c1ccco1)c1ccccc1C(=O)O | 189 to 191
91 | CC1(C)CC(=O)OC1=O | 29 to 31
92 | Cc1cc(C(=O)CCl)c(C)n1Cc1ccccc1 | 64 to 68
93 | CS(=O)(=O)C(Cc1ccccc1)C(=O)O (stereo not drawn) | 116 to 118
94 | Cc1cc(SCC(=O)O)nc2ccccc12 | 117 to 119
95 | Cc1nc(O)ccc1Br | 199 to 201
96 | CN(CCC(N)=S)C(=O)OC(C)(C)C | 79 to 81

Row | Structure (SMILES) | melting point [°C]
97 | O=C(CCC1CCCO1)NC1CCC(C(=O)O)CC1 (stereo not drawn) | 199 to 201
98 | Nc1nccn2ccnc12 | 212 to 214
99 | Clc1ncnc2[nH]ccc12 | 195 to 197
100 | O=C(O)CCC(=O)Nc1nccs1 | 257 to 259
101 | Cc1c(C(=O)CBr)oc2ccccc12 | 110 to 112
102 | CCCNC(=O)CN1CCNCC1 | 31 to 32
103 | O=C(O)CSc1nc2ccccc2o1 | 158 to 160
104 | CSc1ccc(C(C)=O)cc1F | 71 to 73
105 | CC(C)(C)OC(=O)N1CC2(CNC(=O)C2)C1 | 163 to 165
106 | COc1cc(C(N)=NO)ccc1O | 147 to 149
107 | O=C1CC2(CCCCC2)CN1 | 89 to 91
108 | CCn1cnnc1S | 98 to 100
109 | CC(C)(C)n1cc(C(=O)O)c(-c2ccccc2Cl)n1 | 164 to 166
110 | Cc1cc(Cl)c(O)cc1OCC(=O)O | 131 to 133
111 | CC(=O)Nc1cc(Cl)ccc1N | 137 to 139
112 | CC(C)(C)c1ccc(NC(N)=S)cc1 | 153 to 155
113 | COc1cccc(C=C(CC(=O)O)c2nc3ccccc3s2)c1 | 153 to 155
114 | CC(C)n1ncc(C(=O)O)c1N | 109 to 111
115 | Nc1ccc2nc(S)oc2c1 | 208 to 210
116 | Cc1ccc(NC(=O)C(=O)NN)cc1 | 204 to 206
117 | Cc1cc(N)ccc1N1C(=O)CCC1=O | 167 to 169
118 | O=C1NCNC(=O)N1 | 290 to 292
119 | Cc1ccc2c(CCC(=O)O)c[nH]c2c1 | 127 to 129
120 | Nc1nc2c(F)c(F)c(F)cc2s1 | 160 to 164

Row | Structure (SMILES) | melting point [°C]
121 | Cc1ccn2c(=O)c(C(=O)O)cnc2c1 | 241 to 243
122 | Cc1nc(N2CCCC2)[nH]c(=O)c1CC(=O)O | 262 to 264
123 | Cc1c(C(=O)O)sc2ccsc12 | 235 to 237
124 | COc1ccc([N+](=O)[O-])c2cccnc12 | 145 to 147
125 | CCOc1ccccc1S(N)(=O)=O | 154 to 156
126 | CCCCNS(=O)(=O)c1ccc(N)c(N)c1 | 48 to 52
127 | CCOc1ccc2nc(-c3ccc(N)cc3)sc2c1 | 203 to 205
128 | CS(=O)(=O)c1ccc(N)cc1F | 116 to 118
129 | COc1ccc(C(C)=O)cc1CSc1nnnn1C | 64 to 66
130 | O=C(O)c1cn(Cc2ccccc2)nc1-c1ccc(Cl)cc1 | 162 to 165
131 | Cc1ccc(C(=O)NO)cc1O | 169 to 171
132 | O=C(CCl)c1cnc(N2CCCCC2)s1 | 118 to 120
133 | NCc1ccc(NC(=O)c2ccco2)cc1 | 102 to 104
134 | Nc1ncn(Cc2ccncc2)n1 | 156 to 158
135 | Oc1cn(-c2ccccc2)nn1 | 160 to 162
136 | O=C(O)c1cccc2c3c([nH]c12)CCCCC3 | 225 to 227
137 | CCCn1cnc2c1c(=O)[nH]c(=O)n2C | 256 to 258
138 | O=S(=O)(c1ccc(S)nc1)N1CCCC1 | 179 to 181
139 | Cc1ccc(-n2cnnn2)cc1N | 171 to 173
140 | Cc1ccc(CN(C)C)cc1N | 66 to 68
141 | Cc1ccoc1-c1nnc(N)s1 | 153 to 155
142 | COc1c([N+](=O)[O-])ccc2[nH]ncc12 | 219 to 221
143 | Nc1cc(I)ccc1Cl | 56 to 58
